Data taken from ChEMBL document CHEMBL3046287, “Azoxystrobin resistance of French Mycosphaerella graminicola strains assessed by four in vitro bioassays and by screening of G143A substitution” (Crop Prot, 2010).
Values after ≈ are worked out from the molar mass of the structure shown.

Experiments:
Assay type in all cases: functional, organism-based
[1] = tested on: Zymoseptoria tritici; assay: Antifungal activity against azoxystrobin-resistant Zymoseptoria tritici T0290 carrying cytochrome-b A143 allele assessed as fungal colony perpendicular diameter changes after 10 days at 18 degC by spotting on PDA medium assay; details: T0290, 240 h
[2] = tested on: Zymoseptoria tritici; assay: Antifungal activity against azoxystrobin-resistant Zymoseptoria tritici T055 carrying cytochrome-b A143 allele assessed as fungal growth inhibition after 6 days at 20 degC by microplate without alamar blue assay; details: T055, 144 h
[3] = tested on: Zymoseptoria tritici; assay: Antifungal activity against azoxystrobin-sensitive Zymoseptoria tritici T0468 carrying cytochrome-b G143 allele assessed as fungal growth inhibition after 6 days at 20 degC by microplate without alamar blue assay; details: T0468, 144 h
[4] = tested on: Zymoseptoria tritici; assay: Antifungal activity against azoxystrobin-sensitive Zymoseptoria tritici T083 carrying cytochrome-b G143 allele assessed as inhibition of spore germination after 2 days at 18 degC by spotting on PDA medium assay; details: T083, 48 h
[5] = tested on: Zymoseptoria tritici; assay: Antifungal activity against azoxystrobin-sensitive Zymoseptoria tritici T0471 carrying cytochrome-b G143 allele assessed as fungal colony perpendicular diameter changes after 10 days at 18 degC by spotting on PDA medium assay; details: T0471, 240 h
[6] = tested on: Zymoseptoria tritici; assay: Antifungal activity against azoxystrobin-sensitive Zymoseptoria tritici T0473 carrying cytochrome-b G143 allele assessed as inhibition of spore germination after 2 days at 18 degC by spotting on PDA medium assay; details: T0473, 48 h
[7] = tested on: Zymoseptoria tritici; assay: Antifungal activity against azoxystrobin-resistant Zymoseptoria tritici T0451 carrying cytochrome-b A143 allele assessed as fungal growth inhibition after 6 days at 20 degC by microplate without alamar blue assay; details: T0451, 144 h
[8] = tested on: Zymoseptoria tritici; assay: Antifungal activity against azoxystrobin-resistant Zymoseptoria tritici T0485 carrying cytochrome-b A143 allele assessed as fungal growth inhibition after 6 days at 20 degC by microplate without alamar blue assay; details: T0485, 144 h
[9] = tested on: Zymoseptoria tritici; assay: Antifungal activity against azoxystrobin-sensitive Zymoseptoria tritici T0365 carrying cytochrome-b G143 allele assessed as fungal growth inhibition after 6 days at 20 degC by microplate without alamar blue assay; details: T0365, 144 h
[10] = tested on: Zymoseptoria tritici; assay: Antifungal activity against azoxystrobin-resistant Zymoseptoria tritici T049 carrying cytochrome-b A143 allele assessed as fungal growth inhibition after 6 days at 20 degC by microplate without alamar blue assay; details: T049, 144 h
[11] = tested on: Zymoseptoria tritici; assay: Antifungal activity against azoxystrobin-sensitive Zymoseptoria tritici IPO94269 carrying cytochrome-b G143 allele assessed as inhibition of spore germination after 2 days at 18 degC by spotting on PDA medium assay; details: IPO94269, 48 h
[12] = tested on: Zymoseptoria tritici; assay: Antifungal activity against azoxystrobin-sensitive Zymoseptoria tritici T0214 carrying cytochrome-b G143 allele assessed as inhibition of spore germination after 2 days at 18 degC by spotting on PDA medium assay; details: T0214, 48 h

CO/C=C(/C(=O)OC)c1ccccc1Oc1cc(Oc2ccccc2C#N)ncn1 [AZOXYSTROBIN]
IC50 [1]: 11.2 µg/mL (≈ 27.7 µM)
IC50 [2]: > 100 µg/mL
IC50 [3]: 0.02 µg/mL (≈ 0.0496 µM)
IC50 [4]: 0.08 µg/mL (≈ 0.198 µM)
IC50 [5]: 0.1 µg/mL (≈ 0.248 µM)
IC50 [6]: 0.05 µg/mL (≈ 0.124 µM)
IC50 [7]: > 100 µg/mL
IC50 [8]: > 100 µg/mL
IC50 [9]: 0.16 µg/mL (≈ 0.397 µM)
IC50 [10]: > 100 µg/mL
IC50 [11]: 0.06 µg/mL (≈ 0.149 µM)
IC50 [12]: 0.03 µg/mL (≈ 0.0744 µM)
